Assay results reported in patent EP1541166B1, “Preventing cell death using segments of neural thread proteins” (NYMOX CORPORATION, priority 2001, dated 2007).

System: live tissue containing AD7C-NTP
Assay: Prevention/inhibition of AD7C-NTP-induced necrosis of live tissue by Harlil sequences injected with AD7C-NTP into rats, histopathology
Type: in vivo
Conditions: injected together with AD7C-NTP 100 ng/mL-10 µg/mL, 24 hours, compared to control samples injected with AD7C-NTP alone
Description: AD7C-NTP was obtained as described above in Example 1.
The Harlil sequences NTP-1, NTP-3, and NTP-7 prepared in accordance with Example 2 above were used in this example.
Recombinant AD7C-NTP samples 100 ng/mL-10 µg/mL were incubated at room temperature for 5 minutes to one hour with the aforementioned Harlil sequences and then injected into rats as described in Example 1.
Alternatively, a solution of the Harlil sequence was made up in concentrations ranging from 1 microgram/mL to 1 milligram/mL. Solutions containing the recombinant AD7C-NTP also were made up as described above, without the addition of the Harlil sequence. The animals were injected with about 100 microliters of the AD7C-NTP solution, and with about 100 microliters of the Harlil solution.
The 24 individual foci of infiltration were excised, fixed in 10% formalin, embedded in paraffin, and stained and examined by standard histopathological methods.
Similar groups of control rats were injected with (1) AD7C-NTP alone as described in Example 1, (2) bovine serum albumin in saline, (3) normal human serum, and (4) physiological saline, and examined and sacrificed as above, with the excised foci of injection treated as above.

## L H A R L C L A N F C G R N R V (LHARLCLANFCGRNRV) [NTP-1]
  reduction in tissue necrosis: over 95%
